Calls of active or inactive are those of the source. No rule for the calls is given here.

Common to all, as to experiment: CXCR6 receptor antagonists, dose response, cell-based, beta-arrestin, DiscoveRx, APJ panel, uHTS hits (AID 624129)
Test [1] addresses Apelin receptor (Homo sapiens) (UniProt P35414). Conditions: CXCR6 beta-arrestin (DiscoveRx) antagonist cell assay, APJ.
Test [2] addresses Beta-galactosidase (Escherichia coli) (UniProt Q8VNN2). Conditions: CXCR6 beta-arrestin (DiscoveRx) antagonist cell assay, b-galactosidase.
The target in test [3] is C-C chemokine receptor type 6 (Homo sapiens) (UniProt P51684). Conditions: CXCR6 beta-arrestin (DiscoveRx) antagonist cell assay.
Test [4] addresses C-X-C chemokine receptor type 6 (Homo sapiens) (UniProt O00574). Conditions: CXCR6 beta-arrestin (DiscoveRx) antagonist cell assay; for inhibition: CXCR6, run 1, dose range 2, at 80 µM (top of the series).
Where [5] appears, read: dose range 1, mean IC50 across replicates.
[6] abbreviates: CCR6, dose range 1, mean IC50 across replicates.
Setting [7] is: CXCR6, dose range 1, mean IC50 across replicates.

Beta-galactosidase (Escherichia coli), sequence (Q8VNN2 whole entry, looked up): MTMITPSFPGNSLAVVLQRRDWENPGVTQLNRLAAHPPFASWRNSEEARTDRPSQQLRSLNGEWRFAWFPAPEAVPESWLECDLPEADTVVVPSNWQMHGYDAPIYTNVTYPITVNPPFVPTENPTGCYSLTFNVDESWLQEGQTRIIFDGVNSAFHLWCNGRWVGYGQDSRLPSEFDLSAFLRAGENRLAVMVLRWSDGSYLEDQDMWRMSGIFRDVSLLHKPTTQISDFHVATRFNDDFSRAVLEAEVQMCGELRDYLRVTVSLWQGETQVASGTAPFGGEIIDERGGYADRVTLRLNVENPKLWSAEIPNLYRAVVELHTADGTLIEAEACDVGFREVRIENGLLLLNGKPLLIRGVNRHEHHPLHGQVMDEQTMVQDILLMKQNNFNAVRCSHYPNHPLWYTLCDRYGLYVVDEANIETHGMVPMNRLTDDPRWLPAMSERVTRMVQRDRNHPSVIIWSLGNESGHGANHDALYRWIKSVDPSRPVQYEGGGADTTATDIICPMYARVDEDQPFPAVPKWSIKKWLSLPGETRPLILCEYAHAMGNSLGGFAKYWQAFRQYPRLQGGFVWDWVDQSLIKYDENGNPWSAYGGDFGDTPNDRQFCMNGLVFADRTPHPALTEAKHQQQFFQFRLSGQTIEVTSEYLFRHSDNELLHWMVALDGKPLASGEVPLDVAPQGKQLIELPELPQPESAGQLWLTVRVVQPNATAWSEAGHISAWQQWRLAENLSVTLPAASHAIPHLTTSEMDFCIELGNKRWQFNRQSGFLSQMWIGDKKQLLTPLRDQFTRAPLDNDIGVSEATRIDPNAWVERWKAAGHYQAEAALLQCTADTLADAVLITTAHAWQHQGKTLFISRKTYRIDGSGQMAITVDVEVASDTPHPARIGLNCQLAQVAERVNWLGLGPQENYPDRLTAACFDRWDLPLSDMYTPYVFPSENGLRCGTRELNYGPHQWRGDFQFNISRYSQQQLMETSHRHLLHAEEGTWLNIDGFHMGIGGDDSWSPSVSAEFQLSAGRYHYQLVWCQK
C-X-C chemokine receptor type 6 (Homo sapiens), sequence (O00574 whole entry, looked up): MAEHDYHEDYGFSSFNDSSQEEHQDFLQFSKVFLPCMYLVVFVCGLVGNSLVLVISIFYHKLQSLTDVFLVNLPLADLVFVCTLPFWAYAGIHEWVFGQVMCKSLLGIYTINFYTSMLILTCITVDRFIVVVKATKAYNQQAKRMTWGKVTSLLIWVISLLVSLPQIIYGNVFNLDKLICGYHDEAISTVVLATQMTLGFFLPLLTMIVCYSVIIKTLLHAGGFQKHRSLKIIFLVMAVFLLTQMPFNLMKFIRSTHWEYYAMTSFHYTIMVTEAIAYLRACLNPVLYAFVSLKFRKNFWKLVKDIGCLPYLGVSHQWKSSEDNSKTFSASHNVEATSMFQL

Consider `S=C(NCCCN1CCOCC1)Nc1ccc(Cl)cc1`, for which the IC50 – broadly, the point on the concentration scale where inhibition reaches its midpoint – in test [1] (dose range 1) was 13.7 µM; in test [1] (setting [5]), 14.5 µM; in test [1] (run 2, dose range 1) it was 16 µM; in test [1] (run 3, dose range 1), 13.7 µM; in test [2] (dose range 1) it was 26.5 µM; in test [2] (setting [5]), 26.5 µM. The IC50 was 7.62 µM in test [3] (CCR6, dose range 1); 9.33 µM in test [3] (setting [6]); 11 µM in test [3] (CCR6, run 2, dose range 1); 12.9 µM in test [4] (setting [7]); 11 µM in test [4] (CXCR6, run 2, dose range 1). For the same compound, in test [4] (CXCR6, dose range 1), the IC50 entry is “inactive”. The inhibition (as a rule, the drop in the measured response relative to a control, in per cent) in test [4] was 118%.
Take `Cc1ccc(C(=O)CNc2ccc(F)cc2)cc1`: the IC50 in test [1] (dose range 1) is 0.364 µM; in test [1] (setting [5]), 0.281 µM; in test [1] (run 2, dose range 1) it was 0.236 µM; in test [1] (run 3, dose range 1), 0.242 µM; in test [2] (dose range 1), > 80 µM (inactive); in test [2] (setting [5]), above 80 µM. For the same compound, the IC50 in test [3] (CCR6, dose range 1) is 0.29 µM; in test [3] (setting [6]), 0.271 µM; in test [3] (CCR6, run 2, dose range 1), 0.251 µM; in test [4] (CXCR6, dose range 1) it was 0.476 µM; in test [4] (setting [7]), 0.435 µM; in test [4] (CXCR6, run 2, dose range 1) it was 0.395 µM. Also, the inhibition in test [4] came out at 113%.
As for `Oc1c(I)cc(Cl)c2cccnc12`, the IC50 in test [1] (dose range 1) is 3.72 µM; in test [1] (setting [5]), 18.7 µM; in test [1] (run 2, dose range 1) it was 12.7 µM; in test [1] (run 3, dose range 1), 39.6 µM; in test [2] (dose range 1), > 80 µM (inactive); in test [2] (setting [5]), above 80 µM. For the same compound, the IC50 is 5.29 µM in test [3] (CCR6, dose range 1); 6.44 µM in test [3] (setting [6]); 7.59 µM in test [3] (CCR6, run 2, dose range 1); 6.47 µM in test [4] (CXCR6, dose range 1); 4.36 µM in test [4] (setting [7]); 2.24 µM in test [4] (CXCR6, run 2, dose range 1). The inhibition in test [4] is 49.5%.
`O=C(Nc1cccc(C(F)(F)F)c1)Oc1ccc(Cl)c2cccnc12`: the IC50 in test [1] (dose range 1) was 0.347 µM; in test [1] (setting [5]), 0.41 µM; in test [1] (run 2, dose range 1) it was above 80 µM; in test [1] (run 3, dose range 1), 0.463 µM; in test [2] (dose range 1), > 80 µM (inactive); in test [2] (setting [5]), above 80 µM. Further, the IC50 in test [3] (CCR6, dose range 1) was 0.491 µM; in test [3] (setting [6]), 0.54 µM; in test [3] (CCR6, run 2, dose range 1), 0.589 µM; in test [4] (CXCR6, dose range 1), 0.874 µM; in test [4] (setting [7]), 0.702 µM; in test [4] (CXCR6, run 2, dose range 1), 0.53 µM. Moreover, in test [4], the inhibition amounted to 53.2%.
As to `O=C(Nc1nc(-c2ccccn2)cs1)Nc1ccc(F)cc1F`, the IC50 is 8.6 µM in test [1] (dose range 1); 9.05 µM in test [1] (setting [5]); 9.65 µM in test [1] (run 2, dose range 1); 8.89 µM in test [1] (run 3, dose range 1); > 80 µM (inactive) in test [2] (dose range 1); above 80 µM in test [2] (setting [5]). The IC50 in test [3] (CCR6, dose range 1) was 8.74 µM; in test [3] (setting [6]) it was 10.1 µM; in test [3] (CCR6, run 2, dose range 1), 11.5 µM; in test [4] (CXCR6, dose range 1) it was 11.4 µM; in test [4] (setting [7]) it was 8.93 µM; in test [4] (CXCR6, run 1, dose range 2), 5.96 µM. Moreover, the IC50 in test [4] (CXCR6, run 2, dose range 1) stood at 11.5 µM; in test [4] (CXCR6, run 2, dose range 2), 6.87 µM.
`O=C(C#Cc1ccccc1)c1ccc([N+](=O)[O-])cc1`: the IC50 in test [1] (dose range 1) was 4.35 µM; in test [1] (setting [5]) it was 4.53 µM; in test [1] (run 2, dose range 1), 5.55 µM; in test [1] (run 3, dose range 1), 3.7 µM; in test [2] (dose range 1) it was > 80 µM (inactive); in test [2] (setting [5]), above 80 µM. The IC50 in test [3] (CCR6, dose range 1) was 1.46 µM; in test [3] (setting [6]), 1.72 µM; in test [3] (CCR6, run 2, dose range 1), 1.98 µM; in test [4] (CXCR6, dose range 1), 2.67 µM; in test [4] (setting [7]) it was 2.62 µM; in test [4] (CXCR6, run 2, dose range 1) it was 2.57 µM. Further, the inhibition in test [4] is 131%.
With `O=C1CN(C(=O)CSc2nc3cc(Cl)ccc3c(=O)n2Cc2ccccc2)c2ccccc2N1`, the IC50 in test [1] (dose range 1) was > 80 µM (inactive); in test [1] (setting [5]) it was above 80 µM; in test [1] (run 2, dose range 1) it was above 80 µM; in test [1] (run 3, dose range 1), above 80 µM; in test [2] (dose range 1), > 80 µM (inactive); in test [2] (setting [5]), above 80 µM. Moreover, the IC50 in test [3] (CCR6, dose range 1) is 9.4 µM; in test [3] (setting [6]), 11.1 µM; in test [3] (CCR6, run 2, dose range 1), 12.7 µM; in test [4] (setting [7]) it was 8.57 µM; in test [4] (CXCR6, run 1, dose range 2), 9.5 µM; in test [4] (CXCR6, run 2, dose range 1), above 80 µM. This compound also registered an IC50 in test [4] (CXCR6, run 2, dose range 2) of 7.63 µM.
Turning to `Cc1ccc(/C=N/NC(=S)N2CCOCC2)cc1`, the IC50 in test [1] (dose range 1) is 4.87 µM; in test [1] (setting [5]), 5.15 µM; in test [1] (run 2, dose range 1) it was 5.63 µM; in test [1] (run 3, dose range 1) it was 4.93 µM; in test [2] (dose range 1), > 80 µM (inactive); in test [2] (setting [5]) it was above 80 µM. The IC50 in test [3] (CCR6, dose range 1) was 3.58 µM; in test [3] (setting [6]), 4.25 µM; in test [3] (CCR6, run 2, dose range 1) it was 4.93 µM; in test [4] (CXCR6, dose range 1), 4.96 µM; in test [4] (setting [7]) it was 3.83 µM; in test [4] (CXCR6, run 1, dose range 2) it was 3.14 µM. Moreover, the IC50 in test [4] (CXCR6, run 2, dose range 1) came to 4.53 µM; in test [4] (CXCR6, run 2, dose range 2) it was 2.7 µM.
